Reference: patent publication EP0650721B1 (HANMI PHARM. IND. CO., LTD., priority 1993, dated 1995)

Experiment: Membrane permeation property of the cosurfactant in soft capsules over storage at room temperature (cosurfactant content by gas chromatography)
Assay type: physicochemical
Settings: after 50 days
Procedure: The content of the cosurfactant in each soft capsule preparation was analyzed by gas chromatography. The components and their constitutional ratios in the compositions used in this experiment are given in the following Table 1 and the experiment results are given in the following Table 2.

CO[C@H]1CO[C@H]2[C@@H]1OC[C@H]2OC [dimethylisosorbide, 1,4:3,6-dianhydro-2,5-dimethyl-D-glucitol]
change in content of the cosurfactant in the soft capsule: does not change in its content even after 50 days
